Measured values taken from ChEMBL document CHEMBL1201862, “PubChem BioAssay data set” (2004).
Values belong to the compound of their own block, whether it stands above or below them. Active and inactive are the calls of the source.

What was measured:
[1] = target: Peroxisome proliferator-activated receptor gamma/Nuclear receptor coactivator 1 (Homo sapiens, UniProt P37231); experiment: (§1) TR-FRET dose response biochemical High Throughput Screening assay for agonists of the steroid receptor coactivator 1 (SRC-1) recruitment by the peroxisome proliferator-activated receptor gamma (PPAR gamma): non-selective agonists. [Related pubchem assays (depositor defined):AID1300, AID1808, AID504735, AID631]; assay type: protein assay
[2] = target: Peroxisome proliferator-activated receptor gamma/Nuclear receptor coactivator 3 (Homo sapiens, UniProt P37231); experiment: as §1, with “3 (SRC-3)” for “1 (SRC-1)”, “assays: 1301 (Confirmation screen.), 1048 (Primary screen.)]” for “assays (depositor defined):AID1300, AID1808, AID504735, AID631]”; assay type: functional
[3] = target: Peroxisome proliferator-activated receptor gamma/Nuclear receptor coactivator 2 (Homo sapiens, UniProt P37231); experiment: TR-FRET dose response biochemical High Throughput Screening assay for agonists of the steroid receptor coactivator 2 (SRC-2) recruitment by the peroxisome proliferator-activated receptor gamma (PPAR gamma): non-selective agonists. [Related pubchem assays: 1297, 1032 ]; assay type: functional
[4] = NIH-3T3 fibroblast cytotoxicity, dose response, cytotoxicity control, cell-based, fluorescence, Alamar Blue, secondary assay (AID 2327); assay type: functional;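 note: NIH-3T3 mouse fibroblasts cultured with fluconazole at 8 µg/mL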
[5] = C. albicans growth with fluconazole, confirmation, fluorescence, retest (AID 2467); assay type: functional, cell-based
[6] = target: DNA damage-inducible transcript 3 protein (Mus musculus, UniProt P35639); assay type: functional, Cricetulus griseus
X-box-binding protein 1 = X-box-binding protein 1 (Homo sapiens, UniProt P17861); assay type: functional, Cricetulus griseus;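 note: confirmatory dose-response counter-screen serving a CHOP assay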
[7] = target: G-protein coupled receptor 55 (Homo sapiens, UniProt Q9Y2T6); experiment: GPR55 antagonists blocking LPI-driven arrestin recruitment, primary screen, imaging, U2OS, beta-arrestin-GFP, LPI agonist (AID 2013); assay type: functional;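 note: antagonist potency measured as reduced agonist-driven arrestin aggregation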
Exodeoxyribonuclease V = Exodeoxyribonuclease V (Escherichia coli (strain K12), UniProt P04993+P07648+P08394); experiment: E. coli RecBCD inhibitors, dose response, counter-screen for AddAB inhibitor project, absorbance, V66 E. coli, mutant T4 phage (AID 492957); assay type: functional, cell-based, Escherichia coli str. K-12 substr. MG1655
[8] = Counterscreen for AddAB inhibitors: absorbance-based bacterial cell-based high throughput dose response assay for inhibitors of bacterial viability. [Related pubchem assays (depositor defined):AID435030, AID449728, AID449731, AID488942, AID488955, AID488956]; assay type: functional
[9] = target: 1-acylglycerol-3-phosphate O-acyltransferase ABHD5/Perilipin-5 (Homo sapiens, UniProt Q00G26+Q8WTS1); experiment: Luminescence-based biochemical high throughput dose response assay for inhibitors of the interaction of the lipase co-activator protein, abhydrolase domain containing 5 (ABHD5) with perilipin-5 (MLDP; PLIN5) (2K validation set). [Related pubchem assays (depositor defined):AID493035, AID493241]
Chain of 1-acylglycerol-3-phosphate O-acyltransferase ABHD5/Perilipin-5 (Q00G26 whole entry, the tested form may be a part): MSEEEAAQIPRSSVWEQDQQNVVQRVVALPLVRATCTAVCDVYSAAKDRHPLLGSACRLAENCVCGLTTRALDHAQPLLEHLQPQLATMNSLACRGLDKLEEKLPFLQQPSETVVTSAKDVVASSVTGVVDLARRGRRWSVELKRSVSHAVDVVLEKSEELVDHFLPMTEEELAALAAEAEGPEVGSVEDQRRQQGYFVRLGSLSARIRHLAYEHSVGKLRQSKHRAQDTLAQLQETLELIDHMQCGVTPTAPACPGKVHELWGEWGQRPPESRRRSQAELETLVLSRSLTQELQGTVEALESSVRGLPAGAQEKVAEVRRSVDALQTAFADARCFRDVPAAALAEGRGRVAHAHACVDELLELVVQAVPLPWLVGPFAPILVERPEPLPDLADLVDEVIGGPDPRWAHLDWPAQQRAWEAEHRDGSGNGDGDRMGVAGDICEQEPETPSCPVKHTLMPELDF
Chain of 1-acylglycerol-3-phosphate O-acyltransferase ABHD5/Perilipin-5 (Q8WTS1 whole entry, the tested form may be a part): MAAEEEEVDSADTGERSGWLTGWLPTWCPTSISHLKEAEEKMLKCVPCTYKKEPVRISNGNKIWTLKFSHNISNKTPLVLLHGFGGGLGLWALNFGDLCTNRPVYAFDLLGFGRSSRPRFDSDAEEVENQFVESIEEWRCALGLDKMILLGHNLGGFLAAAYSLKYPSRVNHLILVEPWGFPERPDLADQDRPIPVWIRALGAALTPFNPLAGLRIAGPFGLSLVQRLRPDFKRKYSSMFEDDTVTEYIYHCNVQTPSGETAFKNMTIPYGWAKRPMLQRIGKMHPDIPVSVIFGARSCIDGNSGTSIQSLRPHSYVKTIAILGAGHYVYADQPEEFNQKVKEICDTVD

Perilipin-1/ABHD5 = Perilipin-1/ABHD5 (Homo sapiens, UniProt O60240+Q8WTS1); experiment: Luminescence-based biochemical high throughput dose response assay for inhibitors of the interaction of the lipase co-activator protein, abhydrolase domain containing 5 (ABHD5) with perilipin-1 (PLIN1) (2K validation set). [Related pubchem assays (depositor defined):AID493027, AID493057]
HEK293 [10] = experiment: NOD1 signaling inhibitors, primary screen, cell-based, luminescence, uHTS (AID 1578); assay type: functional; settings: Homo sapiens
HEK293 [11] = experiment: cells; assay type: functional, cell-based; settings: Homo sapiens
HEK293 [12] = experiment: cells; assay type: functional, cell-based; settings: Homo sapiens; remark: listed apart in the source
[13] = target: Nucleotide-binding oligomerization domain-containing protein 2 (Homo sapiens, UniProt Q9HC29); experiment: NOD2 signaling inhibitors, cell-based, luminescence, uHTS, HEK293 (AID 1566); assay type: functional
Chain of Nucleotide-binding oligomerization domain-containing protein 2 (Q9HC29 whole entry, the tested form may be a part): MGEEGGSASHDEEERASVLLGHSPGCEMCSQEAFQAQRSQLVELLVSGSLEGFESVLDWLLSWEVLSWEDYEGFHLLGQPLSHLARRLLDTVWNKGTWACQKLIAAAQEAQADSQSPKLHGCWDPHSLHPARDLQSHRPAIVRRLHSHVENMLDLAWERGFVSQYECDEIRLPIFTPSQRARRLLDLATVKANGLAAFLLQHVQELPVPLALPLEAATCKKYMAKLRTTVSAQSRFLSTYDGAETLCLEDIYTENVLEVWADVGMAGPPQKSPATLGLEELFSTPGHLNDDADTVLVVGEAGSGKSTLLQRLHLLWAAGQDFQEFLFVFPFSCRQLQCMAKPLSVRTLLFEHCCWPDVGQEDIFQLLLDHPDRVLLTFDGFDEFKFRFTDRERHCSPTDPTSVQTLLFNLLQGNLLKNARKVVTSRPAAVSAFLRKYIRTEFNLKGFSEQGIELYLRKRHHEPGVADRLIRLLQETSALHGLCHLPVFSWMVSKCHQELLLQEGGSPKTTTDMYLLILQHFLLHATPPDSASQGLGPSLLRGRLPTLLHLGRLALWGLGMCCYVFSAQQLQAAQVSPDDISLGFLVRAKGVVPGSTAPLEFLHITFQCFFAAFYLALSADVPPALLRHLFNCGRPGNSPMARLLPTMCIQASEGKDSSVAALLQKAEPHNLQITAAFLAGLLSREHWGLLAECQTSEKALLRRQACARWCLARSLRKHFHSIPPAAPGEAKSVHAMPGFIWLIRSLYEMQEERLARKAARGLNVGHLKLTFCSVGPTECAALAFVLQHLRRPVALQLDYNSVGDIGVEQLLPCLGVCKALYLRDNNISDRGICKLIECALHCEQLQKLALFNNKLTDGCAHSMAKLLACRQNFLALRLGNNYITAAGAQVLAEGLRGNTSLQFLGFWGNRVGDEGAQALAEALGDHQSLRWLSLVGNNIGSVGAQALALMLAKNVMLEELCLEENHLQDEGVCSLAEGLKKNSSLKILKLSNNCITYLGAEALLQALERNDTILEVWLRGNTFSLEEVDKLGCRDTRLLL

HEK293 [14] = experiment: NOD2 signaling inhibitors in MDP-stimulated cells, cell-based, uHTS, luminescence (AID 2001); assay type: functional; settings: Homo sapiens
HEK293 [15] = experiment: cells; assay type: functional, cell-based; settings: Homo sapiens; remark: listed apart in the source
Coagulation factor XII = target: T1, Coagulation factor XII (Homo sapiens, UniProt P00748); experiment: FXIIa inhibitor potency, concentration-response, biochemical (AID 716); assay type: functional
T1 sequence (P00748 whole entry): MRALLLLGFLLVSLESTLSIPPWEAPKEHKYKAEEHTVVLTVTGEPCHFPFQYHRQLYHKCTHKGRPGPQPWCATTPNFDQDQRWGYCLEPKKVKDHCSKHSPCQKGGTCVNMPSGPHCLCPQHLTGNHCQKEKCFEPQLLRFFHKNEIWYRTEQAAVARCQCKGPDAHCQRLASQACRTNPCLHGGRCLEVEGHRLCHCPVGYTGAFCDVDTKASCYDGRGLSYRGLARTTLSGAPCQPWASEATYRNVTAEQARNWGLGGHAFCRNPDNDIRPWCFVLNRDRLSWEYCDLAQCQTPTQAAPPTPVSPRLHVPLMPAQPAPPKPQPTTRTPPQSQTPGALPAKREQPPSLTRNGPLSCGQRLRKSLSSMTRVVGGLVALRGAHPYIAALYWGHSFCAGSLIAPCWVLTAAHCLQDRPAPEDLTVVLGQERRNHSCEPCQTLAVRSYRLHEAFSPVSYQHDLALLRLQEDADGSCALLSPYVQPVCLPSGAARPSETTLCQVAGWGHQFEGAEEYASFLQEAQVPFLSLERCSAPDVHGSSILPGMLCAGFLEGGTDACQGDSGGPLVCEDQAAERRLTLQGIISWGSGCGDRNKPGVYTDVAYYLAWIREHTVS

[16] = target: T2, Voltage-gated N-type calcium channel alpha-1B subunit/Amyloid beta A4 precursor protein-binding family A member 1 (Homo sapiens, UniProt Q00975+Q02410); assay type: protein assay
T2 sequence (Q00975 whole entry): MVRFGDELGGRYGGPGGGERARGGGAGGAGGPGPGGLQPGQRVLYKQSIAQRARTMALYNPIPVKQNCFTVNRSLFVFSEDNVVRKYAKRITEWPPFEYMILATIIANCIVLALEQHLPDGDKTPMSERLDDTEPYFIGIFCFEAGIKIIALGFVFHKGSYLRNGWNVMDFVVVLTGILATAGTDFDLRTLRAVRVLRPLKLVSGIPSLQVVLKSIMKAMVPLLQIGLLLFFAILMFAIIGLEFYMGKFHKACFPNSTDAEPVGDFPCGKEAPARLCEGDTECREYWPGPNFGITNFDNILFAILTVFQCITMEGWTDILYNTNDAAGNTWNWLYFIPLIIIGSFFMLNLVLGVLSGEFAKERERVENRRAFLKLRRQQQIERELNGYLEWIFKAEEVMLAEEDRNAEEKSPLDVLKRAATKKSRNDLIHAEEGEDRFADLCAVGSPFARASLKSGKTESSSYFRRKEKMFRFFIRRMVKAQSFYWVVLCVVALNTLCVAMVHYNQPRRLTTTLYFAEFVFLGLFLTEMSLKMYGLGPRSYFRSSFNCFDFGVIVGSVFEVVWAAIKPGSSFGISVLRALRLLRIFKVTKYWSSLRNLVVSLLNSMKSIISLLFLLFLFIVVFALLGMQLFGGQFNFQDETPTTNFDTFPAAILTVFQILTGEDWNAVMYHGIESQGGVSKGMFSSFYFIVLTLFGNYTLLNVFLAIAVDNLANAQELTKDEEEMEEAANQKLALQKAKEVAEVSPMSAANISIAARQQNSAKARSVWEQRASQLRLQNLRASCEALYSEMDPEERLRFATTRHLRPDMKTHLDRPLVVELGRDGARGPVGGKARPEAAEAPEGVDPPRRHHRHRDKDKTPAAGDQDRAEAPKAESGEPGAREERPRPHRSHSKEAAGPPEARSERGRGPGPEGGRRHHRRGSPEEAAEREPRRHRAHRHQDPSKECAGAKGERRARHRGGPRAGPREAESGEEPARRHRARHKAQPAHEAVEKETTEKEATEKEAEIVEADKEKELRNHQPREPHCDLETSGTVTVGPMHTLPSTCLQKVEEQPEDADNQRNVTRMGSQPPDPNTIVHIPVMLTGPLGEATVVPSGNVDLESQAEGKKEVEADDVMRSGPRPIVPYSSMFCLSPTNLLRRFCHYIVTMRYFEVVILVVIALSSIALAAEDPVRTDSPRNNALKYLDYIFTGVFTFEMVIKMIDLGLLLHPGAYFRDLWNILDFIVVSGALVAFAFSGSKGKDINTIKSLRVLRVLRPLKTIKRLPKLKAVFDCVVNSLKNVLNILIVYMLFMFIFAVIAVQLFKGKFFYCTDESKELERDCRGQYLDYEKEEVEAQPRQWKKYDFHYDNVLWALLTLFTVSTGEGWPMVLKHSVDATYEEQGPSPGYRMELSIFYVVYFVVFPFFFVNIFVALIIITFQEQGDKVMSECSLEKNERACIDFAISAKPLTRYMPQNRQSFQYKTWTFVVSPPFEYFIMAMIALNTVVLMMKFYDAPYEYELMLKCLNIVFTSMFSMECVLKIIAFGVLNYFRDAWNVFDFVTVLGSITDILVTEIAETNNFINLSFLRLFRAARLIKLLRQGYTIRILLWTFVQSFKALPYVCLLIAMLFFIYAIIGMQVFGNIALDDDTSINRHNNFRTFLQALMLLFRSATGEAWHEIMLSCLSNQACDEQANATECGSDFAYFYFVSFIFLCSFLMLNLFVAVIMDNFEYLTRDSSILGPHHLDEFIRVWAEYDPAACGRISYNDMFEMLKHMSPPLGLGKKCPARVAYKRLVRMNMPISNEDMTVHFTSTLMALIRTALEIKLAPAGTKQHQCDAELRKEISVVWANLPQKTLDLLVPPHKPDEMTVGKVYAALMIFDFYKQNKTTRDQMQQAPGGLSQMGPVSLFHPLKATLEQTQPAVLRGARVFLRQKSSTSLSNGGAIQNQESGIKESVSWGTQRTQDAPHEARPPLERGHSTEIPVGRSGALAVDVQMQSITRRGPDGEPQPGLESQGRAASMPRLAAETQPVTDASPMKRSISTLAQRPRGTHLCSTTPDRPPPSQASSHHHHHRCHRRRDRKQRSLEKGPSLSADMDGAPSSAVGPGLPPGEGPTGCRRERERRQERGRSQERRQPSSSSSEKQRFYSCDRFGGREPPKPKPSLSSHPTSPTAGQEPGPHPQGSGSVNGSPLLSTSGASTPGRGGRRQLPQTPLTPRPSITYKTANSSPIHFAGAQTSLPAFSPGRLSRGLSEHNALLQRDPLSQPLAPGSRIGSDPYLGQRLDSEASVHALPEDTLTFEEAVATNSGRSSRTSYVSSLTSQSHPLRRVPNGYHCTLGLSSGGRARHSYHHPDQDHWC
T2 sequence (Q02410 whole entry): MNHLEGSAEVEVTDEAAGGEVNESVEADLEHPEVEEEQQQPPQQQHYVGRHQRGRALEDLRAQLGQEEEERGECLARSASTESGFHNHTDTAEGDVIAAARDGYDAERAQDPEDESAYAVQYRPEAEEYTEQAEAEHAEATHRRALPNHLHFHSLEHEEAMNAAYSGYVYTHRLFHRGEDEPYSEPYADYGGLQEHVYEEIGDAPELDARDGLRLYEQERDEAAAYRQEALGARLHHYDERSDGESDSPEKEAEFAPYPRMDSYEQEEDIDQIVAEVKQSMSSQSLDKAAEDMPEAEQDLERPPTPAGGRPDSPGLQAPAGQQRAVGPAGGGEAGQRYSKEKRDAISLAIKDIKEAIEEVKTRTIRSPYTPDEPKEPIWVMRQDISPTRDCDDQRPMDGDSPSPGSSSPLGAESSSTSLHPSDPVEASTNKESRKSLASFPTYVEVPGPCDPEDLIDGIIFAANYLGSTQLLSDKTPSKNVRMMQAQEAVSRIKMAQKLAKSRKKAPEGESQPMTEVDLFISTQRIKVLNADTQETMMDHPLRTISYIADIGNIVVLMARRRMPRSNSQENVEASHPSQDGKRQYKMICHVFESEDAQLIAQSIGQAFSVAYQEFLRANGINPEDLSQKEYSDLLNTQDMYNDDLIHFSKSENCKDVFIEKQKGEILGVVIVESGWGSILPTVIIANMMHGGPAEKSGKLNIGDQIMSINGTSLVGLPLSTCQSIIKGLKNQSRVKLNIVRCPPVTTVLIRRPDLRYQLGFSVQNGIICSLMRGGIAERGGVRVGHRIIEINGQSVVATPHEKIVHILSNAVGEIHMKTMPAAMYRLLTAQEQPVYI

[17] = target: T2, Voltage-gated N-type calcium channel alpha-1B subunit/Amyloid beta A4 precursor protein-binding family A member 1; assay type: protein assay; remark: listed apart in the source

Compound: CCCc1ccc(Oc2c[nH]nc2-c2ccc(O)cc2O)cc1
EC50 [4]: > 150 µM (inconclusive) | EC50 [5]: > 38 µM (not active) | Absolute IC50 (CHOP) [6]: 10 µM | Absolute IC50 (XBP1) (X-box-binding protein 1): 10 µM

Compound: O=C(CSc1nc2ccccc2s1)Nc1ccc(N2CCOCC2)c(Cl)c1
IC50 (Exodeoxyribonuclease V): > 119 µM (inactive) | IC50 [8]: > 119 µM (inactive)

Compound: O=C(CCC1CCCC1)NNC(=O)c1cc2ccccc2cc1O
IC50 (Exodeoxyribonuclease V): > 119 µM (inactive) | IC50 [8]: > 119 µM (inactive)

Compound: O=C(Nc1ccc(Cl)cc1)c1cccc(N2C(=O)C3C4CCC(C4)C3C2=O)c1 (stereo not drawn)
EC50 (HEK293 [10]): 12 µM (active) | IC50 (HEK293 [11]): 15.7 µM (active) | IC50 (HEK293 [12]): > 20 µM (inactive) | EC50 [13]: > 20 µM (inactive) | IC50 (HEK293 [14]): 16.7 µM (inactive) | IC50 (HEK293 [15]): > 20 µM (inactive)

Compound: COC(=O)COc1cccc(-n2cnnn2)c1
IC50 (Coagulation factor XII): > 50 µM (inactive)

Compound: COc1ccc(/C=C/C(=O)NC(=S)Nc2ccc(S(=O)(=O)N=C(N)N)cc2)cc1OC
IC50 [16]: 4.65 µM (active) | IC50 [17]: > 50 µM (inactive)

Next, values leading:

EC50 [1]: > 79.4 µM (inactive) | EC50 [2]: > 79.4 µM (not active) | EC50 [3]: > 79.4 µM (not active)
Compound: Cn1c(=O)cc(SCC(=O)NCc2ccc(F)cc2)c2ccccc21

IC50 [7]: 2.71 µM (active)
Compound: S=C(Nc1ccc(Oc2ccccc2)cc1)N(CCCN1CCOCC1)Cc1ccccn1

IC50 [9]: 6.24 µM (active) | IC50 (Perilipin-1/ABHD5): 4.42 µM (active)
Compound: COc1ccc(C(=O)/C=C/c2cc(C(=O)O)cc3c2OCOC3)c(O)c1
